From patent publication US20110054033A1, “METHODS OF USING ABSCISIC ACID FOR AMELIORATING HYPERTENSION AND VASCULAR INFLAMMATION” (Virginia Tech Intellectual Properties, Inc., priority 2009, published 2011)

Columns and labels:
[1] = FPLC separation of plasma lipoproteins; type: in vivo; conditions: ApoE-deficient mice, FIG. 2
Description: (§1) FIG. 2 is a graph showing fast performance liquid chromatography (FPLC) separation of plasma lipoproteins performed on a Superose 6 column using buffer containing 0.15M NaCl, 0.01M Na2HPO4 and 1 mM EDTA at a flow rate of 0.5 ml/min. Forty 0.5 ml fractions were collected and cholesterol was measured in fractions 10-40. Fractions 15-20 contain VLDL, fractions 21-27 contain LDL and fractions 28-34 contain HDL.
as §1, with “Plasma cholesterol and triglyceride levels were measured using kits from Raichem (San Diego, Calif.) adapted for microtiter plate assays. Plasma free fatty acids were measured using the NEFA-HR(2) kit from Wako. Fast” for “FIG. 2 is a graph showing fast”, “lipoproteins was” for “lipoproteins”

[2] = test system: 15-lipoxygenase (15-LOX); test: Aortic gene expression by real-time RT-PCR: 15-LOX; type: in vivo, mice; conditions: day 84, ratio to β-actin
Description: FIG. 4 are photos and graphs showing aortas collected on day 84 of dietary intervention. Representative photomicrographs (100×) of aortic root specimens from (A) control and (B) ABA-fed mice. (C) Analysis of lumenal areas and (D) tunica media areas were performed with aortic cross-sections using Image Pro Plus software. (E) Aortic thickness was analyzed as a ratio of the intima to the media. Gene expression in the aorta of (F) endothelial nitric oxide synthase (eNOS) and (G) 15-lipoxygenase (15-LOX) were measured as a ratio to the house-keeping gene β-actin. Data were analyzed as a completely randomized design.
Total RNA was isolated from aortas using the RNA isolation Minikit (Qiagen) according to the manufacturer's instructions. Total RNA (1 μg) was used to generate a complementary DNA (cDNA) template using the iScript cDNA Synthesis Kit (Bio-Rad, Hercules, Calif.). […] Each gene amplicon was purified with the MiniElute PCR Purification Kit (Qiagen) and quantitated on an agarose gel by using a DNA mass ladder (Promega). […]
Complementary DNA (cDNA) concentrations for genes of interest were examined by real-time quantitative PCR using an iCycler IQ System and the iQ SYBR green supermix (Bio-Rad). […] Results are presented as a starting quantity of target cDNA (picograms) per microgram of total RNA. […]

[3] = test system: MCP-1; test: MCP-1 concentrations in plasma by ELISA; type: in vivo, mice; conditions: P=0.10
Description: FIG. 6 are graphs showing that ABA decreases immune cell infiltration in aortas of ApoE−/− mice and reduces pro-inflammatory gene expression. ApoE −/− mice were fed high fat diets created with or without 100 mg/kg diet racemic abscisic acid (ABA). (A) Infiltration of F4/80^+CD11b^+ macrophages and CD4^+ T-cells into the aorta were assessed with flow cytometry. Gene expression in the aorta of pro-inflammatory markers (B) vascular cell adhesion molecule 1 (VCAM-1), (C) monocyte chemoattractant protein 1 (MCP-1), (D) E-selectin, (F) peroxisome proliferator-activated receptor γ (PPAR γ), and (G) CD36 were measured as a ratio to the housekeeping gene β-actin. (H) MCP-1 protein concentrations (pg/mL) were measured by ELISA. Data were analyzed as a completely randomized design.
A Ready-set-go MCP-1 ELISA (ebioscience) was used to quantify plasma MCP-1 according to the manufacturer's instructions.

[4] = test system: pancreatic β-cells; conditions: Bruzzone et al., 2008; cited from earlier work
[5] = test system: vascular smooth muscle cells and primary human monocytes; conditions: stimulated in culture for 6 hours, Magnone et al., 2009; cited from earlier work

With `CC1=CC(=O)CC(C)(C)C1(O)/C=C/C(C)=C\C(=O)O` (racemic) [ABA, abscisic acid] the “FPLC lipoprotein cholesterol profile vs control diet” value [1] was “slight shift in the profiles to lower VLDL and higher LDL and HDL”, the “Aortic expression of 15-lipoxygenase mRNA vs control” value [2] was “significantly elevated” and the “Plasma MCP-1 concentrations vs control” value [3] was “decreased”. The “Intracellular levels of cAMP” value [4] was “increases intracellular levels of cAMP”, the MCP-1 [5] was “increases” and the MMP-9 [5] was “increases”.
